Assay: Complex solubility in acetonitrile with 0.1 M tetrabutylammonium hexafluorophosphate
Type: physicochemical
Conditions: room temperature
Source text: FIG. 8 is a graph depicting the complex solubility in acetonitrile with 0.1 M tetrabutylammonium hexafluorophosphate.

maximum solubility: 15 mM
SMILES: CCC(CC[N-]C(=O)c1ccccn1)[N-]C(=O)c1ccccn1.[Ni+2] (stereo not shown) [Ni((Etbppn)]
